Source: the supplement of paper PMC11061612

Legend:
Prexasertib = compound: COc1cccc(OCCCN)c1-c1cc(Nc2cnc(C#N)cn2)n[nH]1 [Prexasertib]; settings: max 1 µM
Summary of the method: (§1)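 Cancer cell lines were seeded into 1536-well plates in 7.5 μl medium (DMEM/F12 or RPMI, 10% FBS), held 24 hours at 37°C and 5% CO2, and dosed for 72 hours with final DMSO typically 0.2%. Luminescence from CellTiter-Glo 2.0, scaled between blank-well and DMSO-well means, served as viability. The single-agent IC50 was obtained from dose-response fits with a non-linear mixed effects model, each fit being a two-parameter logistic curve.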

Savolitinib = compound: C[C@@H](c1ccc2nccn2c1)n1nnc2ncc(-c3cnn(C)c3)nc21 [Savolitinib]; settings: max 1 µM
Summary of the method: as §1

Gefitinib = compound: COc1cc2ncnc(Nc3ccc(F)c(Cl)c3)c2cc1OCCCN1CCOCC1 [Gefitinib]; settings: max 10 µM
Summary of the method: as §1

MK-2206 = compound: NC1(c2ccc(-c3nc4ccn5c(=O)[nH]nc5c4cc3-c3ccccc3)cc2)CCC1 [MK-2206]; settings: max 10 µM
Summary of the method: as §1

AZD7648 = compound: Cc1cc2ncnn2cc1Nc1ncc2c(n1)n(C1CCOCC1)c(=O)n2C [AZD7648]; settings: max 10 µM
Summary of the method: as §1

Dasatinib = compound: CC1=C(C(=CC=C1)Cl)NC(=O)C2=CN=C(S2)NC3=CC(=NC(=N3)C)N4CCN(CC4)CCO [Dasatinib]; settings: max 2 µM
Summary of the method: as §1

AZD5153 = compound: COc1nnc2ccc(N3CCC(c4ccc(OCCN5CCN(C)C(=O)[C@H]5C)cc4)CC3)nn12 [AZD5153]; settings: max 1 µM
Summary of the method: as §1

AZD8186 = compound: C[C@@H](Nc1cc(F)cc(F)c1)c1cc(C(=O)N(C)C)cc2c(=O)cc(N3CCOCC3)oc12 [AZD8186]; settings: max 10 µM
Summary of the method: as §1

Olaparib = compound: O=C(c1cc(Cc2n[nH]c(=O)c3ccccc23)ccc1F)N1CCN(C(=O)C2CC2)CC1 [Olaparib]; settings: max 10 µM
Summary of the method: as §1

AZD4320 = compound: CN(CC[C@H](CSC1=CC=CC=C1)NC2=C(C=C(C=C2)S(=O)(=O)NC(=O)C3=CC=C(C=C3)N4CCC(CC4)[C@H](C5=CC=CC=C5C6=CC=C(C=C6)Cl)O)S(=O)(=O)C(F)(F)F)CCO [AZD4320]; settings: max 1 µM
Summary of the method: as §1

Palbociclib = compound: CC(=O)c1c(C)c2cnc(Nc3ccc(N4CCNCC4)cn3)nc2n(C2CCCC2)c1=O [Palbociclib]; settings: max 10 µM
Summary of the method: as §1

AZD1390 = compound: CC(C)n1c(=O)n(C)c2cnc3cc(F)c(-c4ccc(OCCCN5CCCCC5)nc4)cc3c21 [AZD1390]; settings: max 0.3 µM
Summary of the method: as §1

Carboplatin = compound: C1CC(C1)(C(=O)[O-])C(=O)[O-].N.N.[Pt+2] [Carboplatin]; settings: max 10 µM
Summary of the method: as §1

Lapatinib = compound: CS(=O)(=O)CCNCc1ccc(-c2ccc3ncnc(Nc4ccc(OCc5cccc(F)c5)c(Cl)c4)c3c2)o1 [Lapatinib]; settings: max 10 µM
Summary of the method: as §1

Gemcitabine = compound: Nc1ccn([C@@H]2O[C@H](CO)[C@@H](O)C2(F)F)c(=O)n1 [Gemcitabine]; settings: max 0.3 µM
Summary of the method: as §1

Doxorubicin = compound: COc1cccc2c1C(=O)c1c(O)c3c(c(O)c1C2=O)C[C@@](O)(C(=O)CO)C[C@@H]3O[C@H]1C[C@H](N)[C@H](O)[C@H](C)O1 [Doxorubicin]; settings: max 1 µM
Summary of the method: as §1

Paclitaxel = compound: CC(=O)O[C@H]1C(=O)[C@@]2(C)[C@H]([C@H](OC(=O)c3ccccc3)[C@]3(O)C[C@H](OC(=O)[C@H](O)[C@@H](NC(=O)c4ccccc4)c4ccccc4)C(C)=C1C3(C)C)[C@]1(OC(C)=O)CO[C@@H]1C[C@@H]2O [Paclitaxel]; settings: max 3 µM
Summary of the method: as §1

Alisertib = compound: COc1cc(Nc2ncc3c(n2)-c2ccc(Cl)cc2C(c2c(F)cccc2OC)=NC3)ccc1C(=O)O [Alisertib]; settings: max 10 µM
Summary of the method: as §1

AZD0156 = compound: CN(C)CCCOc1ccc(-c2ccc3ncc4c(c3c2)n(C2CCOCC2)c(=O)n4C)cn1 [AZD0156]; settings: max 3 µM
Summary of the method: as §1

AZD5363 = compound: C1CN(CCC1(C(=O)N[C@@H](CCO)C2=CC=C(C=C2)Cl)N)C3=NC=NC4=C3C=CN4 [AZD5363]; settings: max 10 µM
Summary of the method: as §1

5-Fluorouracil = compound: O=c1[nH]cc(F)c(=O)[nH]1 [5-Fluorouracil]; settings: max 20 µM
Summary of the method: as §1

AZD6738 = compound: C[C@@H]1COCCN1C2=NC(=NC(=C2)C3(CC3)[S@](=N)(=O)C)C4=C5C=CNC5=NC=C4 [AZD6738]; settings: max 10 µM
Summary of the method: as §1

Trametinib = compound: CC(=O)Nc1cccc(-n2c(=O)n(C3CC3)c(=O)c3c(Nc4ccc(I)cc4F)n(C)c(=O)c(C)c32)c1 [Trametinib]; settings: max 1 µM
Summary of the method: as §1

Taselisib = compound: Cc1nc(-c2cn3c(n2)-c2ccc(-c4cnn(C(C)(C)C(N)=O)c4)cc2OCC3)n(C(C)C)n1 [Taselisib]; settings: max 10 µM
Summary of the method: as §1

AZD1775 = compound: C=CCn1c(=O)c2cnc(Nc3ccc(N4CCN(C)CC4)cc3)nc2n1-c1cccc(C(C)(C)O)n1 [AZD1775]; settings: max 3 µM
Summary of the method: as §1

SN-38 = compound: CCc1c2c(nc3ccc(O)cc13)-c1cc3c(c(=O)n1C2)COC(=O)[C@]3(O)CC [SN-38]; settings: max 0.3 µM
Summary of the method: as §1

SRA737 = compound: N#Cc1cnc(Nc2cc(NC[C@H]3CNCCO3)c(C(F)(F)F)cn2)cn1 [SRA737]; settings: max 10 µM
Summary of the method: as §1

Crizotinib = compound: C[C@@H](Oc1cc(-c2cnn(C3CCNCC3)c2)cnc1N)c1c(Cl)ccc(F)c1Cl [Crizotinib]; settings: max 10 µM
Summary of the method: as §1

[1] = compound: O=C(Nc1ccc2[nH]nc(-c3ccncc3)c2c1)[C@@H]1CCN(CC(=O)N2CCN(c3ccc(-c4ncccn4)cc3)CC2)C1; settings: max 5 µM
Summary of the method: as §1

Venetoclax = compound: CC1(C)CCC(CN2CCN(c3ccc(C(=O)NS(=O)(=O)c4ccc(NCC5CCOCC5)c([N+](=O)[O-])c4)c(Oc4cnc5[nH]ccc5c4)c3)CC2)=C(c2ccc(Cl)cc2)C1 [Venetoclax]; settings: max 1 µM
Summary of the method: as §1

Selumetinib = compound: Cn1cnc2c(F)c(Nc3ccc(Br)cc3Cl)c(C(=O)NOCCO)cc21 [Selumetinib]; settings: max 10 µM
Summary of the method: as §1

AZD2811 = compound: CCN(CCO)CCCOc1ccc2c(Nc3cc(CC(=O)Nc4cccc(F)c4)[nH]n3)ncnc2c1 [AZD2811]; settings: max 1 µM
Summary of the method: as §1

SG3199 = compound: CC1=CN2[C@@H](C1)C=NC3=CC(=C(C=C3C2=O)OC)OCCCCCOC4=C(C=C5C(=C4)N=C[C@@H]6CC(=CN6C5=O)C)OC [SG3199]; settings: max 0.001 µM
Summary of the method: as §1

AZD5991 = compound: Cc1c2c(nn1C)CSCc1cc(n(C)n1)CSc1cc(c3ccccc3c1)OCCCc1c(C(=O)O)n(C)c3c-2c(Cl)ccc13 [AZD5991]; settings: max 1 µM
Summary of the method: as §1

Etoposide = compound: COc1cc([C@@H]2c3cc4c(cc3[C@@H](O[C@@H]3O[C@@H]5CO[C@@H](C)O[C@H]5[C@H](O)[C@H]3O)[C@H]3COC(=O)[C@H]23)OCO4)cc(OC)c1O [Etoposide]; settings: max 10 µM
Summary of the method: as §1

Row | Cell Line | IC50, cell viability 72 h (Prexasertib) [µM] | IC50, cell viability 72 h (Savolitinib) [µM] | IC50, cell viability 72 h (Gefitinib) [µM] | IC50, cell viability 72 h (MK-2206) [µM] | IC50, cell viability 72 h (AZD7648) [µM] | IC50, cell viability 72 h (Dasatinib) [µM] | IC50, cell viability 72 h (AZD5153) [µM] | IC50, cell viability 72 h (AZD8186) [µM] | IC50, cell viability 72 h (Olaparib) [µM] | IC50, cell viability 72 h (AZD4320) [µM] | IC50, cell viability 72 h (Palbociclib) [µM] | IC50, cell viability 72 h (AZD1390) [µM] | IC50, cell viability 72 h (Carboplatin) [µM] | IC50, cell viability 72 h (Lapatinib) [µM] | IC50, cell viability 72 h (Gemcitabine) [µM] | IC50, cell viability 72 h (Doxorubicin) [µM] | IC50, cell viability 72 h (Paclitaxel) [µM] | IC50, cell viability 72 h (Alisertib) [µM] | IC50, cell viability 72 h (AZD0156) [µM] | IC50, cell viability 72 h (AZD5363) [µM] | IC50, cell viability 72 h (5-Fluorouracil) [µM] | IC50, cell viability 72 h (AZD6738) [µM] | IC50, cell viability 72 h (Trametinib) [µM] | IC50, cell viability 72 h (Taselisib) [µM] | IC50, cell viability 72 h (AZD1775) [µM] | IC50, cell viability 72 h (SN-38) [µM] | IC50, cell viability 72 h (SRA737) [µM] | IC50, cell viability 72 h (Crizotinib) [µM] | IC50, cell viability 72 h [1] [µM] | IC50, cell viability 72 h (Venetoclax) [µM] | IC50, cell viability 72 h (Selumetinib) [µM] | IC50, cell viability 72 h (AZD2811) [µM] | IC50, cell viability 72 h (SG3199) [µM] | IC50, cell viability 72 h (AZD5991) [µM] | IC50, cell viability 72 h (Etoposide) [µM]
1 | MDA-MB-231 (Breast Carcinoma) | 0.173 | > 1 | > 10 | > 10 | > 10 | 1.9 | 0.374 | > 10 | > 10 | > 1 | > 10 | > 0.3 | > 10 | > 10 | 0.184 | 0.592 | 0.456 | > 10 | > 3 | > 10 | > 20 | 9.53 | 0.204 | > 10 | > 3 | 0.109 | > 10 | > 10 | 1.91 | > 1 | 9.41 | > 1 | > 0.001 | > 1 | > 10
2 | MFH-ino (Other Solid Carcinomas) | > 1 | > 1 | > 10 | > 10 | > 10 | > 2 | > 1 | > 10 | > 10 | > 1 | > 10 | > 0.3 | > 10 | > 10 | 0.0717 | > 1 | 1.27 | > 10 | > 3 | > 10 | > 20 | > 10 | > 1 | > 10 | > 3 | 0.0398 | > 10 | > 10 | 3.67 | > 1 | > 10 | > 1 | > 0.001 | > 1 | > 10
3 | NALM-6 (B-Lymphoblastic Leukemia) | 0.0117 | > 1 | > 10 | 0.816 | > 10 | 1.14 | 0.0319 | 1.22 | > 10 | 0.146 | 1.41 | > 0.3 | > 10 | 8.22 | 0.00363 | 0.106 | 0.00565 | 0.238 | > 3 | 1.37 | > 20 | 1.05 | > 1 | 0.293 | 0.509 | 0.00589 | 2.31 | 1.17 | > 5 | 0.38 | > 10 | 0.057 | > 0.001 | > 1 | 0.302
